Literature values, collected in patent US7223553B2, “Immunoassays for everolimus” (priority 2004, dated 2007).
Like-named read-outs stand apart in the source and are kept apart here.

What was measured:
[1] = heart transplant patients, first year post-transplant
[2] = kidney transplantation; consistent with efficacy while minimizing adverse effects

For “40-O-(2-hydroxyethyl)-rapamycin [Everolimus]”, the Everolimus trough levels ([1]; 1.5 mg/day) is listed as 5.2 ± 3.8 ng/mL, the Everolimus trough levels ([1]; 3 mg/day) is listed as 9.4 ± 6.3 ng/mL and the Therapeutic concentration [2] is listed as 3 to 15 ng/mL.
